# From US20130137856A1, “PROTEIN BINDING DOMAINS STABILIZING FUNCTIONAL CONFORMATIONAL STATES OF GPCRS AND USES THEREOF” (priority 2010, published 2013)
# Where a name gives a salt, the structure may show the parent alone. Read-outs that look alike come from different tables or passages of the source.
# Columns and labels:
# β2AR [1] = molecular target: T1, β2AR (Homo sapiens, UniProt P07550); assay: [3H]-DHA saturation binding on β2AR reconstituted in HDL particles; parameters: recombinant β2AR truncated at Gly365 (β2AR-365); made in house; host or cells: Sf9 insect cells (membranes); settings: read-out: [3H]-DHA saturation binding Kd ± S.E.
# Experimental: (§1) The effect of Nb80 and Gs on the receptors affinity for agonists was compared in competition binding experiments. The β2AR and β2AR-[…] (both […]) purified as previously described (Rosenbaum et al. 2007; […] GTPγS was used at 10 μM. […] Bound ^3H-DHA was separated from unbound on a Brandel harvester by passing over a Whatman GF/B filter (presoaked in TBS with 0.3% polyethylenimine) and washed in cold TBS. Radioligand binding was measured in a Beckman LS6000 scintillation counter. Ligand binding affinity (Kd) of DHA was determined from saturation binding curves using GraphPad Prism software.
# β2AR-T4L = molecular target: T2, β2AR-T4L (Homo sapiens, UniProt P07550, DEL231-262, form not given); assay: [3H]-DHA saturation binding on β2AR-T4L reconstituted in HDL particles; settings: read-out: [3H]-DHA saturation binding Kd ± S.E.
# T2 construct: The β2AR and β2AR-T4L (both truncated at position 365) purified as previously described (Rosenbaum et al. 2007); fused on or other part: T4 lysozyme (in the cited construct residues 2-161, C54T/C97A) inserted in place of the third intracellular loop as a crystallisation aid
# Experimental: as §1
# β2AR [2] = molecular target: T1, β2AR; assay: Competition radioligand binding on commercial insect cell membranes with full-length human β2AR, Nb80 versus irrelevant Nb
# [3] = 500 nM Nb80 or irrelevant Nb, 2 nM 3H-DHA radioligand
Molecule,Potency shift (ratio of IC50 with irrelevant Nb to IC50 with Nb80) (β2AR [2]; [3]),also measured
"CCCc1ccccc1OCC(O)CNC(C)C (stereo not shown) [[^3H]-DNA, [^3H]-dihydroalprenolol]",,Kd (β2AR [1]): 0.55 ± 0.09 nM; Kd (β2AR-T4L): 0.42 ± 0.01 nM
"CC(CCc1ccc(O)cc1)NCCc1ccc(O)c(O)c1 (stereo not shown) [dobutamine, dobutamine hydrochloride]",2.3,
"CC(Cc1ccc(O)cc1)NCC(O)c1cc(O)cc(O)c1 (stereo not shown) [fenoterol, fenoterol hydrobromide]",3.7,
"CCC(NC(C)C)C(O)c1ccc(O)c2[nH]c(=O)ccc12 (stereo not shown) [procaterol, procaterol hydrochloride]",2.3,
"CC(NCCc1ccc(O)cc1)C(O)c1ccc(O)cc1 (stereo not shown) [ritodrine, ritodrine hydrochloride]",2.7,
metaproterenol hemisulfate salt,,Potency shift (ratio of IC50 with irrelevant Nb to IC50 with Nb80) (β2AR [2]): 2.9
